This assay concerns the target T1, human PAH with the R408W mutation (Homo sapiens, UniProt P00439, R408W).
T1 construct: expressed in transfected cells
T1 sequence (P00439 1-452 R408W): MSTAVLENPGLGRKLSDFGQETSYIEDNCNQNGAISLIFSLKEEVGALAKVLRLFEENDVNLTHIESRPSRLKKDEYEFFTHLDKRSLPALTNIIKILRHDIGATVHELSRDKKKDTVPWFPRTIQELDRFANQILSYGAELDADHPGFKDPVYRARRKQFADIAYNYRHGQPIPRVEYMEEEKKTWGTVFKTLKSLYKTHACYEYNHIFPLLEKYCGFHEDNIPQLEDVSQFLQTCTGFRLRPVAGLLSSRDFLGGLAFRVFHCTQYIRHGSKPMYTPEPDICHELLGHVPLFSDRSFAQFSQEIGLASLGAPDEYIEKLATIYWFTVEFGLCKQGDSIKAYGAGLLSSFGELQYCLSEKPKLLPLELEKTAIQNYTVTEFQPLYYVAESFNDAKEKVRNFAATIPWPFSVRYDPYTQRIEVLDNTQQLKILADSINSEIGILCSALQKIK
Briefly: Cell Based Phenylalanine Flux Assay.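 Further: after compound treatment, cells received sepiapterin plus isotope-labelled Phenylalanine for 4 hours, then labelled Tyrosine in the medium was quantified, 10-point 2-fold dilution series run in duplicate.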 Conditions: A375 cells expressing human R408W PAH; 24 hrs compound incubation; 13C-Tyrosine by LC-MS; average where tested multiple times; read-out: AC50.
Usually AC50 stands for the midpoint of the concentration-response curve, whichever way the signal moves. Take `Cc1cccc2cc([C@H]3c4nc[nH]c4CCN3C(=O)c3nnc(-c4ccn(C)n4)o3)nn12` [Example 803, (R)-(5-(1-methyl-1H-pyrazol-3-yl)-1,3,4-oxadiazol-2-yl)(4-(7-methylpyrazolo[1,5-a]pyridin-2-yl)-6,7-dihydro-1H-imidazo[4,5-c]pyridin-5(4H)-yl)methanone]: the AC50 is over 5 µM. `Cc1ccc2cc([C@H]3c4nc[nH]c4CCN3C(=O)c3oc(C(C)(C)O)nc3C(F)F)nn2c1` [Example 805]: the AC50 lay within 1 to 5 µM. With `Cc1cccn2nc([C@H]3c4nc[nH]c4CCN3C(=O)c3nnc(-c4cn(C)cn4)o3)cc12` [Example 807, (R)-(5-(1-methyl-1H-imidazol-4-yl)-1,3,4-oxadiazol-2-yl)(4-(4-methylpyrazolo[1,5-a]pyridin-2-yl)-6,7-dihydro-1H-imidazo[4,5-c]pyridin-5(4H)-yl)methanone] the figure was over 5 µM; with `Cn1cnc(-c2nnc(C(=O)N3CCc4[nH]cnc4[C@@H]3c3cc4c(F)cccn4n3)o2)c1` [Example 808, (R)-(4-(4-fluoropyrazolo[1,5-a]pyridin-2-yl)-6,7-dihydro-1H-imidazo[4,5-c]pyridin-5(4H)-yl)(5-(1-methyl-1H-imidazol-4-yl)-1,3,4-oxadiazol-2-yl)methanone], over 5 µM. In the case of `Cn1cnc(-c2nnc(C(=O)N3CCc4[nH]cnc4[C@H]3c3cc4c(F)cccn4n3)o2)c1` [Example 809, (S)-(4-(4-fluoropyrazolo[1,5-a]pyridin-2-yl)-6,7-dihydro-1H-imidazo[4,5-c]pyridin-5(4H)-yl)(5-(1-methyl-1H-imidazol-4-yl)-1,3,4-oxadiazol-2-yl)methanone], the concentration at half-maximal activity (AC50) is 0.5 to 1 µM.

Take `CC(C)(O)c1nc(C(F)F)c(C(=O)N2CCc3[nH]cnc3[C@H]2c2cc3c(C(F)(F)F)cccn3n2)o1` [Example 810, (S)-(4-(difluoromethyl)-2-(2-hydroxypropan-2-yl)oxazol-5-yl)(4-(4-(trifluoromethyl)pyrazolo[1,5-a]pyridin-2-yl)-6,7-dihydro-1H-imidazo[4,5-c]pyridin-5(4H)-yl)methanone]: the AC50 was under 0.5 µM. Regarding `CC(C)(O)c1nc(C(F)F)c(C(=O)N2CCc3[nH]cnc3[C@@H]2c2cc3c(C(F)(F)F)cccn3n2)o1` [Example 811, (R)-(4-(difluoromethyl)-2-(2-hydroxypropan-2-yl)oxazol-5-yl)(4-(4-(trifluoromethyl)pyrazolo[1,5-a]pyridin-2-yl)-6,7-dihydro-1H-imidazo[4,5-c]pyridin-5(4H)-yl)methanone], the half-maximal activity concentration (AC50) lay within 1 to 5 µM. With `Cc1ccc2cc([C@@H]3c4nc[nH]c4CCN3C(=O)c3nnc(-c4ccccn4)o3)nn2c1` [Example 812, (S)-(4-(6-methylpyrazolo[1,5-a]pyridin-2-yl)-6,7-dihydro-1H-imidazo[4,5-c]pyridin-5(4H)-yl)(5-(pyridin-2-yl)-1,3,4-oxadiazol-2-yl)methanone], the AC50 lay in the range of 0.5 to 1 µM. In the case of `Cc1ccc2cc([C@H]3c4nc[nH]c4CCN3C(=O)c3nnc(-c4ccccn4)o3)nn2c1` [Example 813, (R)-(4-(6-methylpyrazolo[1,5-a]pyridin-2-yl)-6,7-dihydro-1H-imidazo[4,5-c]pyridin-5(4H)-yl)(5-(pyridin-2-yl)-1,3,4-oxadiazol-2-yl)methanone], the AC50 was over 5 µM. With `Cc1ccc2cc([C@@H]3c4nc[nH]c4CCN3C(=O)c3nnc(-c4ccn(C)n4)o3)nn2c1` [Example 814, (S)-(5-(1-methyl-1H-pyrazol-3-yl)-1,3,4-oxadiazol-2-yl)(4-(6-methylpyrazolo[1,5-a]pyridin-2-yl)-6,7-dihydro-1H-imidazo[4,5-c]pyridin-5(4H)-yl)methanone] the figure was under 0.5 µM; with `Cc1ccc2cc([C@H]3c4nc[nH]c4CCN3C(=O)c3nnc(-c4ccn(C)n4)o3)nn2c1` [Example 815, (R)-(5-(1-methyl-1H-pyrazol-3-yl)-1,3,4-oxadiazol-2-yl)(4-(6-methylpyrazolo[1,5-a]pyridin-2-yl)-6,7-dihydro-1H-imidazo[4,5-c]pyridin-5(4H)-yl)methanone], over 5 µM; with `COc1ccc(-c2nnc(C(=O)N3CCc4[nH]cnc4[C@@H]3c3cc4c(C)cccn4n3)o2)nc1` [Example 816, (R)-(5-(5-methoxypyridin-2-yl)-1,3,4-oxadiazol-2-yl)(4-(4-methylpyrazolo[1,5-a]pyridin-2-yl)-6,7-dihydro-1H-imidazo[4,5-c]pyridin-5(4H)-yl)methanone], over 5 µM. Next, `COc1ccc(-c2nnc(C(=O)N3CCc4[nH]cnc4[C@H]3c3cc4c(C)cccn4n3)o2)nc1` [Example 817, (S)-(5-(5-methoxypyridin-2-yl)-1,3,4-oxadiazol-2-yl)(4-(4-methylpyrazolo[1,5-a]pyridin-2-yl)-6,7-dihydro-1H-imidazo[4,5-c]pyridin-5(4H)-yl)methanone]: under 0.5 µM; `Cc1cccn2nc([C@H]3c4nc[nH]c4CCN3C(=O)c3nnc(-c4ncccc4F)o3)cc12` [Example 818, (R)-(5-(3-fluoropyridin-2-yl)-1,3,4-oxadiazol-2-yl)(4-(4-methylpyrazolo[1,5-a]pyridin-2-yl)-6,7-dihydro-1H-imidazo[4,5-c]pyridin-5(4H)-yl)methanone]: over 5 µM; `Cc1cccn2nc([C@@H]3c4nc[nH]c4CCN3C(=O)c3nnc(-c4ncccc4F)o3)cc12` [Example 819, (S)-(5-(3-fluoropyridin-2-yl)-1,3,4-oxadiazol-2-yl)(4-(4-methylpyrazolo[1,5-a]pyridin-2-yl)-6,7-dihydro-1H-imidazo[4,5-c]pyridin-5(4H)-yl)methanone]: under 0.5 µM. In the case of `Cc1cccn2nc([C@@H]3c4nc[nH]c4CCN3C(=O)c3nnc(-c4cnn(C(F)F)c4)o3)cc12` [Example 820, (S)-(5-(1-(difluoromethyl)-1H-pyrazol-4-yl)-1,3,4-oxadiazol-2-yl)(4-(4-methylpyrazolo[1,5-a]pyridin-2-yl)-6,7-dihydro-1H-imidazo[4,5-c]pyridin-5(4H)-yl)methanone], the concentration at half-maximal activity (AC50) was under 0.5 µM.

For the molecule `Cc1cccn2nc([C@H]3c4nc[nH]c4CCN3C(=O)c3nnc(-c4cnn(C(F)F)c4)o3)cc12` [Example 821, (R)-(5-(1-(difluoromethyl)-1H-pyrazol-4-yl)-1,3,4-oxadiazol-2-yl)(4-(4-methylpyrazolo[1,5-a]pyridin-2-yl)-6,7-dihydro-1H-imidazo[4,5-c]pyridin-5(4H)-yl)methanone], the AC50 is over 5 µM. For the molecule `Cc1cccn2nc([C@@H]3c4nc[nH]c4CCN3C(=O)c3nnc(-c4ccn(C(F)F)n4)o3)cc12` [Example 822, (S)-(5-(1-(difluoromethyl)-1H-pyrazol-3-yl)-1,3,4-oxadiazol-2-yl)(4-(4-methylpyrazolo[1,5-a]pyridin-2-yl)-6,7-dihydro-1H-imidazo[4,5-c]pyridin-5(4H)-yl)methanone], the AC50 is under 0.5 µM. Take `Cc1cccn2nc([C@H]3c4nc[nH]c4CCN3C(=O)c3nnc(-c4ccn(C(F)F)n4)o3)cc12` [Example 823, (R)-(5-(1-(difluoromethyl)-1H-pyrazol-3-yl)-1,3,4-oxadiazol-2-yl)(4-(4-methylpyrazolo[1,5-a]pyridin-2-yl)-6,7-dihydro-1H-imidazo[4,5-c]pyridin-5(4H)-yl)methanone]: the AC50 fell in the range of 1 to 5 µM.
